{"source": "patent US20240109903A1", "about": "“SUBSTITUTED HETEROCYCLES FOR TREATING CANCER” (Northwestern University, priority 2022, published 2024)", "key": {"NCI-H23": {"system": "NCI-H23", "experiment": "NCI 60 five-dose screen NCI-H23", "format": "cell-based", "settings": "Homo sapiens, five-dose; for CC50: read-out: LC50 (the source's name) (converted)"}, "RPMI-8226": {"system": "RPMI-8226", "experiment": "NCI 60 five-dose screen RPMI-8226", "format": "cell-based", "settings": "Homo sapiens, five-dose; for CC50: read-out: LC50 (the source's name)"}, "T-47D": {"system": "T-47D", "experiment": "NCI 60 five-dose screen T-47D", "format": "cell-based", "settings": "Homo sapiens, T47D, five-dose; for CC50: read-out: LC50 (the source's name)"}, "OVCAR-4": {"system": "OVCAR-4", "experiment": "NCI 60 five-dose screen OVCAR-4", "format": "cell-based", "settings": "Homo sapiens, five-dose; for CC50: read-out: LC50 (the source's name) (converted)"}, "MDA-MB-468": {"system": "MDA-MB-468", "experiment": "NCI 60 five-dose screen MDA-MB-468", "format": "cell-based", "settings": "Homo sapiens, five-dose; for CC50: read-out: LC50 (the source's name) (converted)"}, "OVCAR-8": {"system": "OVCAR-8", "experiment": "NCI 60 five-dose screen OVCAR-8", "format": "cell-based", "settings": "Homo sapiens, five-dose; for CC50: read-out: LC50 (the source's name) (converted)"}, "SF-295": {"system": "SF-295", "experiment": "NCI 60 five-dose screen SF-295", "format": "cell-based", "settings": "Homo sapiens, five-dose; for CC50: read-out: LC50 (the source's name) (converted)"}, "SF-268": {"system": "SF-268", "experiment": "NCI 60 five-dose screen SF-268", "format": "cell-based", "settings": "Homo sapiens, five-dose; for CC50: read-out: LC50 (the source's name) (converted)"}, "SR": {"system": "SR", "experiment": "NCI 60 five-dose screen SR", "format": "cell-based, human", "settings": "five-dose; for GI50 / IC50 / CC50: Homo sapiens; for CC50: read-out: LC50 (the source's name)"}, "[1]": {"system": "MV-4-11 acute myeloid leukemia cells", "experiment": "CellTiter-Glo 2.0 cell viability, MV-4-11", "format": "cell-based", "settings": "Homo sapiens", "method": "2019 October; 94(4): 1813-1823.\nCell viability was assessed using the CellTiter-Glo 2.0 assay from Promega, which yields a signal proportional to the amount of ATP present in a cell population. Compounds were first dispensed into empty 96-well flat-bottom tissue culture-treated plates (Corning) using an Echo550. MV4-1 cells were diluted to a density of 0.1 million cells per ml, pipetted onto the compounds at a density of 1,000 cells per well for U937 and 3,000 cells per well for MV4-11, mixed, and incubated for 3 days at 37° C. with 5% C02. After incubating, 5 μl of cells from each well were added to 5 μl of CellTiter-Glo 2.0 reagent in a384-well white ProxiPlate (PerkinElmer), incubated for 20 minutes at ambient temperature, and luminescence was analyzed on an EnSpire plate reader. Graphing and regression analysis was performed in Graphpad Prism."}, "SK-OV-3": {"system": "SK-OV-3", "experiment": "NCI 60 five-dose screen SK-OV-3", "format": "cell-based", "settings": "Homo sapiens, five-dose; for CC50: read-out: LC50 (the source's name) (converted)"}, "NCI-H322M": {"system": "NCI-H322M", "experiment": "NCI 60 five-dose screen NCI-H322M", "format": "cell-based", "settings": "Homo sapiens, five-dose; for CC50: read-out: LC50 (the source's name) (converted)"}, "[2]": {"settings": "MV4-11, 72 h, MV-4-11 cells, 3 days, CellTiter-Glo 2.0, read-out: IC50 (uM) [Cell Type: MV-4-11]"}, "[3]": {"settings": "MV4-11, bound stated in text, read-out: IC50 against MV-4-11 acute myeloid leukemia cells"}}, "note": "Like-named read-outs stand apart in the source and are kept apart here."}
{"smiles": "FC(F)(F)c1cc2c(Cl)ncnc2n1CCN1CCCCC1", "note": "[NUCC-0226679]", "values": [{"measurement": "GI50", "setting": "NCI-H23", "value": 13.8, "unit": "µM"}, {"measurement": "IC50", "setting": "NCI-H23", "value": 28.2, "unit": "µM"}, {"measurement": "IC (TGI)", "setting": "NCI-H23", "value": 38.9, "unit": "µM"}, {"measurement": "CC50", "setting": "NCI-H23", "value": "≥ 100", "unit": "µM"}, {"measurement": "GI50", "setting": "RPMI-8226", "value": 31.6, "unit": "µM"}, {"measurement": "IC50", "setting": "RPMI-8226", "value": 45.7, "unit": "µM"}, {"measurement": "IC (TGI)", "setting": "RPMI-8226", "value": 100, "unit": "µM"}, {"measurement": "CC50", "setting": "RPMI-8226", "value": "≥ 100", "unit": "µM"}, {"measurement": "GI50", "setting": "T-47D", "value": 21.9, "unit": "µM"}, {"measurement": "IC50", "setting": "T-47D", "value": 70.8, "unit": "µM"}, {"measurement": "IC (TGI)", "setting": "T-47D", "value": 100, "unit": "µM"}, {"measurement": "CC50", "setting": "T-47D", "value": "≥ 100", "unit": "µM"}, {"measurement": "GI50", "setting": "OVCAR-4", "value": 28.2, "unit": "µM"}, {"measurement": "IC50", "setting": "OVCAR-4", "value": 70.8, "unit": "µM"}, {"measurement": "IC (TGI)", "setting": "OVCAR-4", "value": 100, "unit": "µM"}, {"measurement": "CC50", "setting": "OVCAR-4", "value": "≥ 100", "unit": "µM"}, {"measurement": "GI50", "setting": "MDA-MB-468", "value": 3020, "unit": "nM"}, {"measurement": "IC50", "setting": "MDA-MB-468", "value": 18.2, "unit": "µM"}, {"measurement": "IC (TGI)", "setting": "MDA-MB-468", "value": 9.33, "unit": "µM"}, {"measurement": "CC50", "setting": "MDA-MB-468", "value": 38.9, "unit": "µM"}, {"measurement": "GI50", "setting": "OVCAR-8", "value": 12.6, "unit": "µM"}, {"measurement": "IC50", "setting": "OVCAR-8", "value": 20.4, "unit": "µM"}, {"measurement": "IC (TGI)", "setting": "OVCAR-8", "value": 33.1, "unit": "µM"}, {"measurement": "CC50", "setting": "OVCAR-8", "value": 87.1, "unit": "µM"}, {"measurement": "GI50", "setting": "SF-295", "value": 22.4, "unit": "µM"}, {"measurement": "IC50", "setting": "SF-295", "value": 40.7, "unit": "µM"}, {"measurement": "IC (TGI)", "setting": "SF-295", "value": 87.1, "unit": "µM"}, {"measurement": "CC50", "setting": "SF-295", "value": "≥ 100", "unit": "µM"}, {"measurement": "GI50", "setting": "SF-268", "value": 16.2, "unit": "µM"}, {"measurement": "IC50", "setting": "SF-268", "value": 30.9, "unit": "µM"}, {"measurement": "IC (TGI)", "setting": "SF-268", "value": 38.9, "unit": "µM"}, {"measurement": "CC50", "setting": "SF-268", "value": 93.3, "unit": "µM"}, {"measurement": "GI50", "setting": "SR", "value": 3310, "unit": "nM"}, {"measurement": "IC50", "setting": "SR", "value": 6.17, "unit": "µM"}, {"measurement": "CC50", "setting": "SR", "value": "≥ 100", "unit": "µM"}, {"measurement": "TGI", "setting": "SR", "value": "4.58 −log[M]"}, {"measurement": "IC50", "setting": "[1]; [2]", "value": 0.675, "unit": "µM"}, {"measurement": "IC50", "setting": "[1]; [3]", "value": "< 2", "unit": "µM"}, {"measurement": "GI50", "setting": "SK-OV-3", "value": 52.5, "unit": "µM"}, {"measurement": "IC50", "setting": "SK-OV-3", "value": 100, "unit": "µM"}, {"measurement": "IC (TGI)", "setting": "SK-OV-3", "value": 100, "unit": "µM"}, {"measurement": "CC50", "setting": "SK-OV-3", "value": "≥ 100", "unit": "µM"}, {"measurement": "GI50", "setting": "NCI-H322M", "value": 15.5, "unit": "µM"}, {"measurement": "IC50", "setting": "NCI-H322M", "value": 36.3, "unit": "µM"}, {"measurement": "IC (TGI)", "setting": "NCI-H322M", "value": 43.7, "unit": "µM"}, {"measurement": "CC50", "setting": "NCI-H322M", "value": "≥ 100", "unit": "µM"}]}
{"smiles": "OC1CCC(Cn2c(C(F)(F)F)cc3c(Cl)ncnc32)CC1", "note": "(centres unmarked) [NUCC-0226689]", "values": [{"measurement": "GI50", "setting": "NCI-H23", "value": 3.09, "unit": "µM"}, {"measurement": "IC50", "setting": "NCI-H23", "value": 5.5, "unit": "µM"}, {"measurement": "IC (TGI)", "setting": "NCI-H23", "value": 11.5, "unit": "µM"}, {"measurement": "CC50", "setting": "NCI-H23", "value": 45.7, "unit": "µM"}, {"measurement": "GI50", "setting": "RPMI-8226", "value": 33.9, "unit": "µM"}, {"measurement": "IC50", "setting": "RPMI-8226", "value": 58.9, "unit": "µM"}, {"measurement": "IC (TGI)", "setting": "RPMI-8226", "value": 100, "unit": "µM"}, {"measurement": "CC50", "setting": "RPMI-8226", "value": "≥ 100", "unit": "µM"}, {"measurement": "GI50", "setting": "T-47D", "value": 26.3, "unit": "µM"}, {"measurement": "IC50", "setting": "T-47D", "value": 91.2, "unit": "µM"}, {"measurement": "IC (TGI)", "setting": "T-47D", "value": 100, "unit": "µM"}, {"measurement": "CC50", "setting": "T-47D", "value": "≥ 100", "unit": "µM"}, {"measurement": "GI50", "setting": "OVCAR-4", "value": 17.8, "unit": "µM"}, {"measurement": "IC50", "setting": "OVCAR-4", "value": 37.2, "unit": "µM"}, {"measurement": "IC (TGI)", "setting": "OVCAR-4", "value": 46.8, "unit": "µM"}, {"measurement": "CC50", "setting": "OVCAR-4", "value": "≥ 100", "unit": "µM"}, {"measurement": "GI50", "setting": "MDA-MB-468", "value": 2140, "unit": "nM"}, {"measurement": "IC50", "setting": "MDA-MB-468", "value": 7.08, "unit": "µM"}, {"measurement": "IC (TGI)", "setting": "MDA-MB-468", "value": 5.62, "unit": "µM"}, {"measurement": "CC50", "setting": "MDA-MB-468", "value": 22.4, "unit": "µM"}, {"measurement": "GI50", "setting": "OVCAR-8", "value": 2.29, "unit": "µM"}, {"measurement": "IC50", "setting": "OVCAR-8", "value": 3.63, "unit": "µM"}, {"measurement": "IC (TGI)", "setting": "OVCAR-8", "value": 5.37, "unit": "µM"}, {"measurement": "CC50", "setting": "OVCAR-8", "value": 30.9, "unit": "µM"}, {"measurement": "GI50", "setting": "SF-295", "value": 22.9, "unit": "µM"}, {"measurement": "IC50", "setting": "SF-295", "value": 38.9, "unit": "µM"}, {"measurement": "IC (TGI)", "setting": "SF-295", "value": 83.2, "unit": "µM"}, {"measurement": "CC50", "setting": "SF-295", "value": "≥ 100", "unit": "µM"}, {"measurement": "GI50", "setting": "SF-268", "value": 2.51, "unit": "µM"}, {"measurement": "IC50", "setting": "SF-268", "value": 4.47, "unit": "µM"}, {"measurement": "IC (TGI)", "setting": "SF-268", "value": 6.92, "unit": "µM"}, {"measurement": "CC50", "setting": "SF-268", "value": 37.2, "unit": "µM"}, {"measurement": "GI50", "setting": "SR", "value": 2140, "unit": "nM"}, {"measurement": "IC50", "setting": "SR", "value": 3.55, "unit": "µM"}, {"measurement": "CC50", "setting": "SR", "value": "≥ 100", "unit": "µM"}, {"measurement": "TGI", "setting": "SR", "value": "5.17 −log[M]"}, {"measurement": "IC50", "setting": "[1]; [2]", "value": 0.689, "unit": "µM"}, {"measurement": "IC50", "setting": "[1]; [3]", "value": "< 2", "unit": "µM"}, {"measurement": "GI50", "setting": "SK-OV-3", "value": 22.4, "unit": "µM"}, {"measurement": "IC50", "setting": "SK-OV-3", "value": 67.6, "unit": "µM"}, {"measurement": "IC (TGI)", "setting": "SK-OV-3", "value": 100, "unit": "µM"}, {"measurement": "CC50", "setting": "SK-OV-3", "value": "≥ 100", "unit": "µM"}, {"measurement": "GI50", "setting": "NCI-H322M", "value": 3.8, "unit": "µM"}, {"measurement": "IC50", "setting": "NCI-H322M", "value": 10.2, "unit": "µM"}, {"measurement": "IC (TGI)", "setting": "NCI-H322M", "value": 13.5, "unit": "µM"}, {"measurement": "CC50", "setting": "NCI-H322M", "value": 38, "unit": "µM"}]}
